The values that follow come from PMC9454942, “Novel AR/AR-V7 and Mnk1/2 Degrader, VNPP433-3β: Molecular Mechanisms of Action and Efficacy in AR-Overexpressing Castration Resistant Prostate Cancer In Vitro and In Vivo Models” (Cells, 2022).

One may read the Kd as the free concentration of one partner at which half of the binding sites on the other are occupied at equilibrium, for simple one-to-one binding. Read a low Kd as higher affinity.

In this test the target is T1, androgen receptor (AR) ligand binding domain (Homo sapiens, UniProt P10275).
T1 construct: recombinant human AR LBD
T1 sequence (P10275 669-920 limits assumed): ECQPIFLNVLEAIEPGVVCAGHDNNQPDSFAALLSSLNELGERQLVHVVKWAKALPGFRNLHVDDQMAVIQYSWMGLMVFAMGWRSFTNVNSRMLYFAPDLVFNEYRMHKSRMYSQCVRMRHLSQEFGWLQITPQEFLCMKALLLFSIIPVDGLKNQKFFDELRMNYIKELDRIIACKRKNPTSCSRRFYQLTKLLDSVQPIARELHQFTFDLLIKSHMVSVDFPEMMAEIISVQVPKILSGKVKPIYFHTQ
The test is described as follows: fluorescence spectroscopy titration with purified AR LBD; supported by CETSA in LNCaP cells.

As to `C[C@]12CC[C@H](n3ccnc3)CC1=CC[C@@H]1[C@@H]2CC[C@]2(C)C(n3cnc4ccccc43)=CC[C@@H]12` [VNPP433-3β], the dissociation constant Kd stood at 360 ± 30 nM.
